Test results from article PMC10324562, “Inhibitory NKG2A^+ and absent activating NKG2C^+ NK cell responses are associated with the development of EBV^+ lymphomas” (Frontiers in Immunology, 2023).
Ends that are not written are not given here.

The molecules below were run on EBV-infected K562-CR2-HLA-E*0103/0103 cells (assay: Cell proliferation assay, K562-CR2-HLA-E*0103/0103). Settings: GGDPHLPTL-pulsed (300 µM) K562-CR2-HLA-E*0103/0103 with NKG2A+NKG2C- or NKG2A+NKG2C+ NK cells, Monalizumab 10 µg/mL; Figure 2H.
Format: cell-based, human
Description: (§1) For the cell proliferation assays MHC-I-deficient K562-CR2, K562-CR2-HLA-E*0103/0103 or K562-CR2-HLA-E*0101/0101 target cells were established and maintained as described before ([16]). The cells were then always infected with the marmoset B-lymphoblastoid cell line B95-8 derived EBV-strain, which encodes for the GGDPHLPTL LMP-1 variant, (MOI=1) ([16]) for 3 days. Sorted NKG2C^-NKG2A^+, NKG2C^+NKG2A^- and NKG2C^+NKG2A^+ NK cells were used as effector cells and were quickly thawed at 37°C, washed, and pre-activated overnight in RPMI, 10% FCS, 1% L-glutamine, 10 ng/ml IL-12 and 100 ng/ml IL-18 at 37°C. The NK cells were then harvested by centrifugation at 400xg for 5 minutes and washed once with Opti-MEM. […] All cells were then harvested, fixed with the FIX & PERM Cell Fixation & Cell Permeabilization Kit (Thermo-Scientific) and analysed by flow-cytometry, as described below. […]
(§2) Figure 2 HLA-E variants are associated with the development of EBV^+ lymphomas and inhibit NKG2A^+ NK cells. […] (E) Enriched NKG2A^+NKG2C^- NK cells were co-cultured with EBV-infected K562-CR2, K562-CR2-HLA-E*0103/0103 or K562-CR2-HLA-E*0101/0101 cells and were subsequently analyzed by flow-cytometry. […] Viable EBV-infected K562-CR2-HLA-E*0103/0103 or K562-CR2-HLA-E*0101/0101 cells or enriched NKG2A^+NKG2C^- NK cells was subsequently analysed by flow-cytometry. […]

| Molecule | EBV-infected K562-CR2 cell dissemination on blocking of NKG2A |
| --- | --- |
| Monalizumab: α-NKG2A blocking monoclonal antibody (Innate Pharma) (antibody, chains of the INN, looked up, V domains shown) VH: QVQLVQSGAEVKKPGASVKVSCKASGYTFTSYWMNWVRQAPGQGLEWMGRIDPYDSETHYAQKLQGRVTMTTDTSTSTAYMELRSLRSDDTAVYYCARGGYDFDVGTLYWFFDVWGQGTTVTVSS VL: DIQMTQSPSSLSASVGDRVTITCRASENIYSYLAWYQQKPGKAPKLLIYNAKTLAEGVPSRFSGSGSGTDFTLTISSLQPEDFATYYCQHHYGTPRTFGGGTKVEIK | reduction |

The molecules below were run against T1, HLA-E on the surface of Raji cells (Homo sapiens, UniProt P13747) (assay: HLA-E stabilisation assay (flow-cytometry)). Settings: HLA-E*0101/0101 Raji cells transfected with peptide, HLA-E surface expression after 16h by flow-cytometry; three independent replicates; Figure 1E; read-out: HLA-E upregulation (EC50).
T1 construct: host or cells: Raji cells
Format: cell-based
Description: For the HLA-E stabilization experiments, HLA-E*0101/0101-encoding Raji cells (German Collection of Microorganisms and Cell Cultures) were maintained in 90% RPMI 1640 + 10% heat-inactivated FCS (Thermo-Fisher). The cells were individually transfected with indicated concentrations of the LMP-1 peptides (Peptides&Elephants) using the Pierce Protein Transfection Reagent according to the manufacturer’s instructions (Thermo-Fisher). After 16h, the cells were either fixed and analyzed for the HLA-E expression by flow-cytometry as described below, or washed once with Opti-MEM I Reduced Serum Medium (Gibco) and subsequently used in NKG2A^+ NK cell inhibition experiments.
The following conjugated mouse anti-human mAB were used for flow-cytometry: PE-CD19 (4G7), BV421-CD56 (NCAM 16.2), BV510-NKG2A (131411), PE-CD71 (M-A712) (all: BD Biosciences), AF647-NKG2C (134591, R&D Systems), APC-HLA/E (3D12) (Biolegend). Dead cells were identified using 7-AAD, LIVE/DEAD Fixable Green or Near-IR Dead Cell Stain Kit (both: Thermo-Scientific). Flow-cytometry analysis was performed on a FACSCanto2 platform and FACSDiva Version 10.7.2 (BD).
Figure 1 LMP-1-derived peptides are associated with the development of EBV^+ lymphomas and inhibit NKG2A^+ NK cells. (A–D) Distribution of LMP-1 variants in patients with (A) asymptomatic reactivations (N=96), (B) symptomatic reactivations (N=96), (C) EBV^+HL (N=25), (D) EBV^+nHL (N=38). Fractions represent the relative frequency of the LMP-1 peptide GGDPHLPTL, GSDPHLPTL, GGDPHLPPL, GGDPPLPTL, GCDPHLPTL, GIDPHLPTL, GAGPHLPTL, GGDTPLPTL, GDDPHLPTL, GGDPHVPTL and GTDPHLPTL variants. ^+ The frequency of the LMP-1 variants was compared to the asymptomatic cohort by the Chi^2 Test. (E, F) HLA-E stabilisation assay. (E) HLA-E stabilisation assay: Raji cells were incubated with indicated concentrations of the positive control (VMAPRTLFL) or the LMP-1 peptide-derived GGDPHLPTL, GSDPHLPTL, GGDPHLPPL, GGDPPLPTL, GCDPHLPTL, GIDPHLPTL, GAGPHLPTL, GGDTPLPTL, GDDPHLPTL, GGDPHVPTL and GTDPHLPTL variants. The HLA-E surface expression was then assessed after 16h of co-culture by flow-cytometry. Plots represent the mean ( ± SD) of three independent replicates. Each peptide was compared to the positive control using RM one-way ANOVA (with the Geisser-Greenhouse correction). (F) NKG2A^+NKG2C^- NK cell inhibition assay: Raji cells were incubated with indicated concentrations of the positive control (VMAPRTLFL) or the LMP-1 peptide-derived GGDPHLPTL, GSDPHLPTL, GGDPHLPPL, GGDPPLPTL, GCDPHLPTL, GIDPHLPTL, GAGPHLPTL, GGDTPLPTL, GDDPHLPTL, GGDPHVPTL and GTDPHLPTL variants and were then co-cultured with pre-activated NKG2A^+NKG2C^- NK cells from 12 blood donors. Plots represent the mean ( ± SD) of 12 independent replicates. Each peptide was compared to the positive control using RM one-way ANOVA (with the Geisser-Greenhouse correction). p < 0.05 was considered significant. *p < 0.05; **p < 0.01; ***p < 0.001. EBV^+HL, EBV^+ Hodgkin lymphoma, EBV^+nHL, EBV^+ non-Hodgkin lymphoma, Pos. Ctrl., positive control. TEXT PRINTED IN THE PICTURE: (E) Pos. Ctrl.: 81.4 μM | (E) GTDPHLPTL: 167.7 μM | (E) GGDPHLPTL: 162 μM | (E) GGDPPLPTL: 153.8 μM | (E) GIDPHLPTL: 313.9 μM | (E) GCDPHLPTL: 304.8 μM | (E) GDDPHLPTL: 370.3 μM | (E) GAGPHLPTL: 317.1μM | (E) GGDPHVPTL: 759 μM | (E) GSDPHLPTL: 613.9 μM | (E) GGDPHLPPL: 682 μM | (E) GGDTPLPTL: 1110 μM | (F) Pos. […] The y-axis titles are 'HLA-E upregulation' (E) and 'NKG2A+NKG2C- NK cell inhibition' (F). / Panels A–D: the percentages and counts (e.g. 44.8%, 43/96) are frequencies of peptide variants in patient cohorts, not results for a substance, and are left out.

| Molecule | EC50 [µM] |
| --- | --- |
| GAGPHLPTL [GAGPHLPTL] | 317 |
| GCDPHLPTL [GCDPHLPTL] | 305 |
| GDDPHLPTL [GDDPHLPTL] | 370 |
| GGDPHLPPL [GGDPHLPPL] | 682 |
| GGDPHLPTL [GGDPHLPTL] | 162 |
| GGDPHVPTL [GGDPHVPTL] | 759 |
| GGDPPLPTL [GGDPPLPTL] | 154 |
| GGDTPLPTL [GGDTPLPTL] | 1110 |
| GIDPHLPTL [GIDPHLPTL] | 314 |
| GSDPHLPTL [GSDPHLPTL] | 614 |
| GTDPHLPTL [GTDPHLPTL] | 168 |

What follows are molecules tested on EBV-infected K562-CR2-HLA-E*0101/0101 cells (assay: Cell proliferation assay, K562-CR2-HLA-E*0101/0101). Settings: GGDPHLPTL-pulsed (300 µM) K562-CR2-HLA-E*0101/0101 with NKG2A+NKG2C- or NKG2A+NKG2C+ NK cells, Monalizumab 10 µg/mL; Figure 2H.
Format: cell-based, human
Description: as §1, §2

| Molecule | EBV-infected K562-CR2 cell dissemination on blocking of NKG2A |
| --- | --- |
| Monalizumab: α-NKG2A blocking monoclonal antibody (Innate Pharma) (antibody, chains of the INN, looked up, V domains shown) VH: QVQLVQSGAEVKKPGASVKVSCKASGYTFTSYWMNWVRQAPGQGLEWMGRIDPYDSETHYAQKLQGRVTMTTDTSTSTAYMELRSLRSDDTAVYYCARGGYDFDVGTLYWFFDVWGQGTTVTVSS VL: DIQMTQSPSSLSASVGDRVTITCRASENIYSYLAWYQQKPGKAPKLLIYNAKTLAEGVPSRFSGSGSGTDFTLTISSLQPEDFATYYCQHHYGTPRTFGGGTKVEIK | reduction |
